Measured values as given in patent US20210128566A1, “NOVEL FUNCTIONALIZED PURINE-2,6-DIONES AND THEIR USE IN MEDICINE” (THOMAS HELLEDAYS STIFTELSE FÖR MEDICINSK FORSKNING, priority 2017, published 2021).

Target: recombinant human NUDT5 (Homo sapiens, UniProt Q9UKK9)
Experiment: NUDT5 inhibitor activity by malachite green reporter assay
Type: biochemical
Details: Table 3; 6 nM NUDT5, 50 μM ADP-Ribose, 15 minutes at room temperature
Procedure: NUDT5 inhibitors were evaluated using a coupled enzymatic assay with detection of inorganic phosphate (Pi) using the malachite green assay. Following enzymatic hydrolysis of ADP-Ribose (Sigma-Aldrich A0572) by NUDT5, to yield AMP and ribose-5-phosphate, the latter product is continuously processed by a significant excess of alkaline phosphatase (Sigma-Aldrich, P0114). Formation of Pi is quantified based on the green complex (that absorbs at 630 nm) formed between malachite green and molybdate according to published procedure (Baykov, A. A., Evtushenko, O. A. and Avaeva, S. M., Anal Biochem, 171, 266-270 (1988)). Assay buffer consisted of 10 mM Tris-acetate at pH 8.0, 40 mM sodium chloride, 10 mM magnesium acetate, 0.005% Tween-20 and 1 mM dithiothreitol (DTT). The final conditions consisted of 6 nM recombinant human NUDT5, 50 μM ADP-Ribose and 10 U/ml of calf intestine alkaline phosphatase. The plates with compounds, enzymes and substrate were incubated at room temperature for 15 minutes, after which the reaction was terminated and the signal developed by the addition of the malachite green reagent using a MultiDrop (Thermo Scientific). Following vigorous shaking on plate shakers for a minimum of eight minutes the absorbance was read in a microplate reader (HidexSense) using a filter at 630 nm and a read time of 0.1 s per well. Inhibitors were used in dilutions from 100 μM to 1.7 nM in 3-fold dilution steps. Experiments were run in duplicate and confirmed in two independent experiments. IC50 values were determined by curve fitting using ExcelFit.

Compared with `COC(=O)C1CCN(c2nc3c(c(=O)n(C)c(=O)n3C)n2Cc2nnc(-c3ccc(Cl)c(Cl)c3)o2)CC1` [Example 39, methyl 1-(7-{[5-(3,4-dichlorophenyl)-1,3,4-oxadiazol-2-yl]methyl}-1,3-dimethyl-2,6-dioxo-2,3,6,7-tetrahydro-1H-purin-8-yl)piperidine-4-carboxylate], `CC(=O)N1CCN(c2nc3c(c(=O)n(C)c(=O)n3C)n2Cc2nnc(-c3ccc(Cl)c(Cl)c3)o2)CC1` [Example 32, 8-(4-acetylpiperazin-1-yl)-7-{[5-(3,4-dichlorophenyl)-1,3,4-oxadiazol-2-yl]methyl}-1,3-dimethyl-2,3,6,7-tetrahydro-1H-purine-2,6-dione] is 2.3-fold higher in IC50: 32.7 nM for the first, 76.7 nM for the second.

Compared with `Cn1c(=O)c2c(nc(SC3CCCCC3)n2Cc2nnc(-c3ccc(Cl)c(Cl)c3)o2)n(C)c1=O` [Example 7, 8-(cyclohexylsulfanyl)-7-{[5-(3,4-dichlorophenyl)-1,3,4-oxadiazol-2-yl]methyl}-1,3-dimethyl-2,3,6,7-tetrahydro-1H-purine-2,6-dione], `Cn1c(=O)c2c(nc(N3CCOCC3)n2Cc2nnc(-c3ccc(Cl)c(Cl)c3)o2)n(C)c1=O` [Example 13, 7-{[5-(3,4-dichlorophenyl)-1,3,4-oxadiazol-2-yl]methyl}-1,3-dimethyl-8-(morpholin-4-yl)-2,3,6,7-tetrahydro-1H-purine-2,6-dione] is 12-fold higher in IC50: 65.9 nM for the first, 759 nM for the second.

Same assay, conditions: Table 4; 6 nM NUDT5, 50 μM ADP-Ribose, 15 minutes at room temperature

Compared with `Cn1c(=O)c2c(nc(NCC3CCN(C(=N)N)CC3)n2Cc2nnc(-c3ccc(Cl)c(Cl)c3)o2)n(C)c1=O` [Example 85, 4-{[(7-{[5-(3,4-dichlorophenyl)-1,3,4-oxadiazol-2-yl]methyl}-1,3-dimethyl-2,6-dioxo-2,3,6,7-tetrahydro-1H-purin-8-yl)amino]methyl}piperidine-1-carboximidamide], `COc1cc(-c2nnc(Cn3c(NCC4CCN(C(=N)N)CC4)nc4c3c(=O)n(C)c(=O)n4C)o2)ccc1C` [Example 128, 4-{[(7-{[5-(3-methoxy-4-methylphenyl)-1,3,4-oxadiazol-2-yl]methyl}-1,3-dimethyl-2,6-dioxo-2,3,6,7-tetrahydro-1H-purin-8-yl)amino]methyl}piperidine-1-carboximidamide] is 6.6-fold higher in IC50: 19.5 nM for the first, 128 nM for the second. The first is the more potent here.

First: Cn1c(=O)c2c(nc(Cl)n2Cc2nnc(-c3cccnc3)o2)n(C)c1=O [Example 94, 8-chloro-1,3-dimethyl-7-{[5-(pyridin-3-yl)-1,3,4-oxadiazol-2-yl]methyl}-2,3,6,7-tetrahydro-1H-purine-2,6-dione]
Second: Cn1c(=O)c2c(nc(-n3cccn3)n2Cc2nnc(-c3ccc(Cl)c(Cl)c3)o2)n(C)c1=O [Example 67, 7-{[5-(3,4-dichlorophenyl)-1,3,4-oxadiazol-2-yl]methyl}-1,3-dimethyl-8-(1H-pyrazol-1-yl)-2,3,6,7-tetrahydro-1H-purine-2,6-dione]
The IC50 of the first is 35-fold higher: 6910 nM for the first, 200 nM for the second. The second is the more potent here.

`COc1cc(-c2nnc(Cn3c(SCCNC(=O)OC(C)(C)C)nc4c3c(=O)n(C)c(=O)n4C)o2)ccc1C` [Example 140, tert-butyl N-{2-[(7-{[5-(3-methoxy-4-methylphenyl)-1,3,4-oxadiazol-2-yl]methyl}-1,3-dimethyl-2,6-dioxo-2,3,6,7-tetrahydro-1H-purin-8-yl)sulfanyl]ethyl}carbamate] and `COc1ccc(CNc2nc3c(c(=O)n(C)c(=O)n3C)n2Cc2nnc(-c3ccc(Cl)c(Cl)c3)o2)c(OC)c1` [Example 86, 7-{[5-(3,4-dichlorophenyl)-1,3,4-oxadiazol-2-yl]methyl}-8-{[(2,4-dimethoxyphenyl)methyl]amino}-1,3-dimethyl-2,3,6,7-tetrahydro-1H-purine-2,6-dione] are within 1.5-fold of each other in IC50: 262 nM for the first, 184 nM for the second.

`COc1ccc(-c2nnc(Cn3c(N4CCNCC4)nc4c3c(=O)n(C)c(=O)n4C)o2)cc1` [Example 74, 7-{[5-(4-methoxyphenyl)-1,3,4-oxadiazol-2-yl]methyl}-1,3-dimethyl-8-(piperazin-1-yl)-2,3,6,7-tetrahydro-1H-purine-2,6-dione] gave an IC50 of 198 nM.
